Where two headings read alike, the source gives them in different places.
What was measured:
[1] = cited from earlier work; for human half-life: reported human half-life simulated in the HFIM
[2] = tested on: wild-type MX/09 influenza; type: cell-based; details: oseltamivir 75 mg Q12 and/or zanamivir 600 mg Q12 exposures, alone or in combination, throughout the study

Compound	oral bioavailability ([1]; ref GlaxoSmithKline, 2009)	human half-life ([1]; ref GlaxoSmithKline, 2009) [h]	human half-life ([1]; ref Doucette and Aoki, 2001) [h]	effect on viral replication relative to no-treatment control [2]
CC(=O)N[C@H]1[C@H]([C@H](O)[C@H](O)CO)OC(C(=O)O)=C[C@@H]1N=C(N)N [Zanamivir, zanamivir]	poor oral bioavailability	2.5	–	–
Oseltamivir carboxylate	–	–	8	suppressed the replication of MX/09

From publication PMC5694373 (European journal of pharmaceutical sciences : official …, 2017)
